Data reported in US9409905B2, “Antibacterial compounds and methods for use” (PTC THERAPEUTICS, INC., priority 2011, dated 2016).
In brackets after ≈: the same amount, converted by molar mass.

How the values were obtained:
[1] = tested on: Escherichia coli (E. coli) BAS849; assay: Antibacterial activity, microbroth dilution MIC (Table 1); format: cell-based; settings: microbroth dilution, super sensitive Gram-negative E. coli BAS849, read-out: MIC, BAS849
In short: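 Each strain is exposed to test compound in a microbroth dilution series; visible growth is scored macroscopically, and the lowest growth-free concentration is recorded as MIC in μg/mL.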

[2] = tested on: Staphylococcus aureus (S. aureus) 29213; assay: as above; format: cell-based; settings: microbroth dilution, Gram-positive S. aureus 29213, read-out: MIC, 29213
In short: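 Values are MICs (μg/mL): the smallest drug amount at which macroscopically visible bacterial growth is absent under assay conditions, from a microdilution method in broth.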

[3] = tested on: E. coli ELZ4251; assay: Antibacterial activity, MIC, multi-drug resistant clinical isolate (Table 3); format: cell-based; settings: Escherichia coli
Source text: (§1) The antibacterial activity from a microbroth dilution method may be presented as the minimum inhibitory concentration (MIC in μg/mL). The MIC value is the lowest concentration of drug which prevents macroscopically visible growth under test conditions.
(§2) Antibacterial activity of test compounds against E. coli ELZ4000 and E. coli ELZ4251 multi-drug resistant clinical isolates is shown in Table 3.

[4] = tested on: E. coli ELZ4000; assay: as above; format: cell-based; settings: Escherichia coli, ELZ4000, read-out: MIC ELZ4000
Source text: as §1, §2

[5] = tested on: E. coli LZ3111; assay: Antibacterial activity, MIC, quinolone resistant strain (Table 2); format: cell-based; settings: Escherichia coli, LZ3111, read-out: MIC LZ3111
In short: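 Microbroth dilution method; MIC (μg/mL) is the lowest drug concentration preventing macroscopically visible growth under test conditions.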

[6] = tested on: Pseudomonas aeruginosa (P. aeruginosa) 27853; assay: Antibacterial activity, MIC (Table 5); format: cell-based; settings: P. aeruginosa 27853, read-out: MIC, 27853
In short: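 Activity was measured by microbroth dilution. The MIC, in μg/mL, is the lowest drug concentration that prevents macroscopically visible growth under the test conditions.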

[7] = tested on: E. coli 25922; assay: Antibacterial activity, microbroth dilution MIC (Table 1); format: cell-based, Escherichia coli; settings: Escherichia coli; microbroth dilution; control Gram-negative E. coli 25922 strain; read-out: MIC, 25922
In short: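 Broth microdilution; endpoint = no macroscopic growth; value = lowest inhibiting concn, μg/mL.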

CCc1c(-c2ccc3ncccc3c2)[nH]c(=O)c(C(=O)O)c1O [Cpd 20, 5-ethyl-4-hydroxy-2-oxo-6-(quinolin-6-yl)-1,2-dihydropyridine-3-carboxylic acid]
MIC [1]: 1 to 3.5 µg/mL (≈ 3.22 to 11.3 µM)
MIC [2]: 12.5 to 150 µg/mL (≈ 40.3 to 483 µM)
MIC [3]: 3.5 to 12.5 µg/mL (≈ 11.3 to 40.3 µM)
MIC [4]: 12.5 to 150 µg/mL (≈ 40.3 to 483 µM)
MIC [5]: 3.5 to 12.5 µg/mL (≈ 11.3 to 40.3 µM)
MIC [6]: 12.5 to 150 µg/mL (≈ 40.3 to 483 µM)
MIC [7]: 12.5 to 150 µg/mL (≈ 40.3 to 483 µM)

CCc1c(-c2ccc3c(c2)cc(CN2CC4CC2CN4)n3C)[nH]c(=O)c(C(=O)O)c1O (centres unmarked) [Cpd 182, 6-(2-(2,5-diazabicyclo[2.2.1]heptan-2-ylmethyl)-1-methyl-1H-indol-5-yl)-5-ethyl-4-hydroxy-2-oxo-1,2-dihydropyridine-3-carboxylic acid]
MIC [1]: 1 to 3.5 µg/mL (≈ 2.37 to 8.28 µM)
MIC [2]: 12.5 to 150 µg/mL (≈ 29.6 to 355 µM)
MIC [3]: 12.5 to 150 µg/mL (≈ 29.6 to 355 µM)
MIC [4]: 12.5 to 150 µg/mL (≈ 29.6 to 355 µM)
MIC [5]: 3.5 to 12.5 µg/mL (≈ 8.28 to 29.6 µM)
MIC [6]: 12.5 to 150 µg/mL (≈ 29.6 to 355 µM)
MIC [7]: 12.5 to 150 µg/mL (≈ 29.6 to 355 µM)

CCc1c(-c2ccc3c(c2)cc(CN(C)C2CCCC2)n3C)[nH]c(=O)c(C(=O)O)c1O.Cl [Cpd 211, 6-(2-((cyclopentyl(methyl)amino)methyl)-1-methyl-1H-indol-5-yl)-5-ethyl-4-hydroxy-2-oxo-1,2-dihydropyridine-3-carboxylic acid hydrochloride]
MIC [1]: < 1 µg/mL
MIC [2]: 3.5 to 12.5 µg/mL
MIC [3]: 12.5 to 150 µg/mL
MIC [4]: 12.5 to 150 µg/mL
MIC [5]: 3.5 to 12.5 µg/mL
MIC [6]: 12.5 to 150 µg/mL
MIC [7]: 1 to 3.5 µg/mL

CCc1c(-c2ccc3c(c2)cc(CNCc2ccccn2)n3C)[nH]c(=O)c(C(=O)O)c1O.Cl [Cpd 219, 5-ethyl-4-hydroxy-6-(1-methyl-2-((pyridin-2-ylmethylamino)methyl)-1H-indol-5-yl)-2-oxo-1,2-dihydropyridine-3-carboxylic acid hydrochloride]
MIC [1]: < 1 µg/mL
MIC [2]: 1 to 3.5 µg/mL
MIC [3]: 12.5 to 150 µg/mL
MIC [4]: 12.5 to 150 µg/mL
MIC [5]: 3.5 to 12.5 µg/mL
MIC [6]: 12.5 to 150 µg/mL
MIC [7]: 1 to 3.5 µg/mL

CCc1c(-c2ccc3c(c2)cc(CNCC2CCOCC2)n3C)[nH]c(=O)c(C(=O)O)c1O.Cl [Cpd 227, 5-ethyl-4-hydroxy-6-(1-methyl-2-(((tetrahydro-2H-pyran-4-yl)methylamino)methyl)-1H-indol-5-yl)-2-oxo-1,2-dihydropyridine-3-carboxylic acid hydrochloride]
MIC [1]: < 1 µg/mL
MIC [2]: 3.5 to 12.5 µg/mL
MIC [3]: 12.5 to 150 µg/mL
MIC [4]: 12.5 to 150 µg/mL
MIC [5]: 12.5 to 150 µg/mL
MIC [6]: 12.5 to 150 µg/mL
MIC [7]: 1 to 3.5 µg/mL

CCc1c(-c2ccc3c(c2)cc(CN2CCCNCC2)n3C)[nH]c(=O)c(C(=O)O)c1O.Cl.Cl [Cpd 239, 6-(2-((1,4-diazepan-1-yl)methyl)-1-methyl-1H-indol-5-yl)-5-ethyl-4-hydroxy-2-oxo-1,2-dihydropyridine-3-carboxylic acid dihydrochloride]
MIC [1]: 1 to 3.5 µg/mL
MIC [2]: 12.5 to 150 µg/mL
MIC [3]: 3.5 to 12.5 µg/mL
MIC [4]: 12.5 to 150 µg/mL
MIC [5]: 3.5 to 12.5 µg/mL
MIC [6]: 12.5 to 150 µg/mL
MIC [7]: 3.5 to 12.5 µg/mL

CCc1c(-c2ccc3c(c2)cc(CNC2CCCCC2)n3C)[nH]c(=O)c(C(=O)O)c1O.Cl [Cpd 241, 6-(2-((cyclohexylamino)methyl)-1-methyl-1H-indol-5-yl)-5-ethyl-4-hydroxy-2-oxo-1,2-dihydropyridine-3-carboxylic acid hydrochloride]
MIC [1]: < 1 µg/mL
MIC [2]: 3.5 to 12.5 µg/mL
MIC [3]: 3.5 to 12.5 µg/mL
MIC [4]: 12.5 to 150 µg/mL
MIC [5]: 3.5 to 12.5 µg/mL
MIC [6]: 12.5 to 150 µg/mL
MIC [7]: < 1 µg/mL

CCc1c(-c2ccc3c(c2)cc(CN2CCCC(O)C2)n3C)[nH]c(=O)c(C(=O)O)c1O (centres unmarked) [Cpd 255, 5-ethyl-4-hydroxy-6-(2-((3-hydroxypiperidin-1-yl)methyl)-1-methyl-1H-indol-5-yl)-2-oxo-1,2-dihydropyridine-3-carboxylic acid]
MIC [1]: < 1 µg/mL
MIC [2]: 3.5 to 12.5 µg/mL (≈ 8.23 to 29.4 µM)
MIC [3]: 12.5 to 150 µg/mL (≈ 29.4 to 353 µM)
MIC [4]: 12.5 to 150 µg/mL (≈ 29.4 to 353 µM)
MIC [5]: 12.5 to 150 µg/mL (≈ 29.4 to 353 µM)
MIC [6]: 12.5 to 150 µg/mL (≈ 29.4 to 353 µM)
MIC [7]: 1 to 3.5 µg/mL (≈ 2.35 to 8.23 µM)
